Data set [1] deals with T1, Cannabinoid receptor 2 (Homo sapiens, UniProt P34972). Briefly: Displacement of [3H](R)-3-methyl-2-(3-(morpholinomethyl)-3,4-dihydro-2H-benzo[b][1,4]oxazin-5-yl)-1-(naphthalen-1-yl)but-2-en-1-one from human CB2 receptor expressed in CHO cells at 10 uM by liquid scintillation counting. Format: cell-based.
Data set [2] concerns the target Cannabinoid receptor 1 (Homo sapiens) (UniProt P21554). As to the kind of experiment: Displacement of [3H]CP-55940 from human CB1 receptor expressed in CHO cells at 10 uM by liquid scintillation counting. The class given is cell-based. A general note: In a radioligand displacement assay an active substance lowers the binding of a labelled ligand.
Data set [3] shares this target. As to the kind of experiment: Agonist activity at human CB1 receptor expressed in CHO cells by [35S]GTPgammaS assay relative to CP-55940. The class given is functional, cell-based. (GTPγS resists hydrolysis and so accumulates on activated G proteins.)
Data set [4] has as its target T1, Cannabinoid receptor 2. As to the kind of experiment: Agonist activity at human CB2 receptor expressed in CHO cells by [35S]GTPgammaS assay relative to CP-55940. The class given is functional, cell-based.
The target of data set [5] is T1, Cannabinoid receptor 2. Briefly: Displacement of [3H](R)-3-methyl-2-(3-(morpholinomethyl)-3,4-dihydro-2H-benzo[b][1,4]oxazin-5-yl)-1-(naphthalen-1-yl)but-2-en-1-one from human CB2 receptor expressed in CHO cells at 1 uM by liquid scintillation counting. Format: cell-based.
The target in data set [6] is Cannabinoid receptor 1 (Homo sapiens) (UniProt P21554). As to the kind of experiment: Displacement of [3H]CP-55940 from human CB1 receptor expressed in CHO cells at 1 uM by liquid scintillation counting. The class given is cell-based.
Cannabinoid receptor 1 (Homo sapiens), sequence (P21554 whole entry): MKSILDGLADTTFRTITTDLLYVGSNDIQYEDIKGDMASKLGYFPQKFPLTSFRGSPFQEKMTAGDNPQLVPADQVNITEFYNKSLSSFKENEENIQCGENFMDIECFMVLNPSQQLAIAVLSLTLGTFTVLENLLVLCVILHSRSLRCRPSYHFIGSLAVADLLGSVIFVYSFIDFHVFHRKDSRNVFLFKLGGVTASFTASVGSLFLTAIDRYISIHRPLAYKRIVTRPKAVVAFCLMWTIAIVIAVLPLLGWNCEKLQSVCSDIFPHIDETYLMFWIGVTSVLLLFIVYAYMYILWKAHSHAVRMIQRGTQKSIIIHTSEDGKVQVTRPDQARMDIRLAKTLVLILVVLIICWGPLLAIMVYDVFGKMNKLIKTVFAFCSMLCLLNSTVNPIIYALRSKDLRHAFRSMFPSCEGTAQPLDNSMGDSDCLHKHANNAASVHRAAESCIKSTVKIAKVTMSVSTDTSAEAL
For data set [7] the target is unchanged. As to the kind of experiment: Agonist activity at human CB1 receptor expressed in CHO cells at 10 uM by [35S]GTPgammaS assay. Format: functional, cell-based.
Data set [8] concerns the target T1, Cannabinoid receptor 2. Briefly: Agonist activity at human CB2 receptor expressed in CHO cells at 3 uM by [35S]GTPgammaS assay relative to CP-55940. Format: functional, cell-based.
Data set [9] addresses Cannabinoid receptor 1 (Homo sapiens) (UniProt P21554). Briefly: Agonist activity at human CB1 receptor expressed in CHO cells at 3 uM by [35S]GTPgammaS assay relative to CP-55940. The class given is functional, cell-based.
For data set [10], the target named is T1, Cannabinoid receptor 2. Briefly: Displacement of [3H]CP-55940 from human CB2 receptor expressed in CHOK1 cells by liquid scintillation counting. The class given is cell-based, CHO-K1.
Data set [11] concerns the target T1, Cannabinoid receptor 2. As to the kind of experiment: Agonist activity at human CB2 receptor expressed in CHO cells by [35S]GTPgammaS assay. The class given is functional, cell-based.
In data set [12] the test system is Rattus norvegicus. Briefly: Antiallodynic activity in spinal nerve ligated Sprague-Dawley rat model assessed as inhibition of tactile allodynia at 15 mg/kg, ip. The class given is functional, organism-based. Further details: dose 15 mg/kg.
Data set [13] relates to Rattus norvegicus. As to the kind of experiment: Antiallodynic activity in ip dosed spinal nerve ligated Sprague-Dawley rat model assessed as inhibition of tactile allodynia. The class given is functional.
Data set [14] deals with Rattus norvegicus. As to the kind of experiment: Toxicity in Sprague-Dawley rat assessed as exploratory behavior at 15 mg/kg, ip by open-field chamber test. Format: organism-based. Set-up: dose 15 mg/kg, route intraperitoneal. Conditions: in vivo.
The subject of data set [15] is Rattus norvegicus. Briefly: Antiallodynic activity in spinal nerve ligated Sprague-Dawley rat model assessed as inhibition of tactile allodynia at 10 mg/kg, ip. Format: functional, organism-based. Further details: dose 10 mg/kg.
The subject of data set [16] is Rattus norvegicus. Briefly: Antiallodynic activity in AM-630-pretreated ip dosed spinal nerve ligated Sprague-Dawley rat model assessed as inhibition of tactile allodynia. Format: functional, organism-based.

Calls of active or inactive are those of the source. The calls are words filed in the database; no cut-off is given here.

T1 sequence (P34972 whole entry): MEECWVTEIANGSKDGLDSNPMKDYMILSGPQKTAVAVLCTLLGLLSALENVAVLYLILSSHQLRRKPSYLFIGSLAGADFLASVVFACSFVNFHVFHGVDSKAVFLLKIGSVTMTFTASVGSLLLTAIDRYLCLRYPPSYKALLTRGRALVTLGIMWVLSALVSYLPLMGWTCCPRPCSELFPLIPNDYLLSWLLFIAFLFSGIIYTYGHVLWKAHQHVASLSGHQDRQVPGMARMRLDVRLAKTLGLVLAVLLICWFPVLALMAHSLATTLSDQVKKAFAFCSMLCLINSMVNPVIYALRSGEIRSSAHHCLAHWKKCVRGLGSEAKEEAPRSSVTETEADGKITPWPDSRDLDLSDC

`O=C(N/N=C1\C(=O)N(CCC2CCCCC2)c2ccccc21)Nc1ccccc1`: the Activity (on Cannabinoid receptor 2 [1]; in data set [2]) was less than 40% throughout.
Consider `CCCCCCN1C(=O)/C(=N\NC(=O)Cc2ccccc2)c2ccccc21`, for which the values for the Activity (at Cannabinoid receptor 2 [1]; in data set [2]) were 91.5% and 98.2%, respectively. In addition, the Emax (usually the size of the effect at its maximum, as opposed to the concentration needed) in data set [3] came out at 71.9%; on Cannabinoid receptor 2 [4], 45.8%.
On to `CCCCCCN1C(=O)/C(=N/NS(=O)(=O)c2ccccc2)c2ccccc21`, for which the Activity (at Cannabinoid receptor 2 [1]; in data set [2]) was less than 40% throughout.
Take `O=C(N/N=C1\C(=O)N(Cc2ccc(Cl)cc2)c2ccccc21)c1ccccc1`: the values for the Activity (at Cannabinoid receptor 2 [5]; in data set [6]) were 22% and 94.5%, respectively. In addition, the Emax in data set [3] came out at 72%; on Cannabinoid receptor 2 [4], 39.8%.
For `CCCCCN1C(=O)/C(=N\NC(=O)c2ccccc2)c2ccccc21`, the results for the Activity (on Cannabinoid receptor 2 [5]; in data set [6]) were 80% and 95%, respectively. The Emax in data set [3] stood at 95.1%; at Cannabinoid receptor 2 [4], 68.5%.
For the molecule `CCCCCCN1C(=O)/C(=N\NC(=O)c2ccccc2)c2cccc(C)c21`, the Activity at Cannabinoid receptor 2 [5] came to 68%; in data set [6], 67%. Moreover, the outcome in data set [7] and in [3] was inactive. For the same molecule, the Emax on Cannabinoid receptor 2 [4] worked out at 34.2%.
With `CCCCCCCCCCCCN1C(=O)/C(=N\NC(=O)c2ccccc2)c2ccccc21`, the Activity on Cannabinoid receptor 2 [5] stood at 24.3%; in data set [6] it was 23.8%.
The matching figures for `CCCCCCN1C(=O)/C(=N\NC(=O)c2ccc(Cl)cc2)c2ccccc21`: 32.7% and 46.6%.
`CCCCCCN1C(=O)/C(=N\NC(=O)c2ccc(OC)cc2)c2ccccc21`: the Activity came out at 56% at Cannabinoid receptor 2 [5] and 81.7% in [6]. For the same molecule, the Emax in [3] worked out at 71%; on Cannabinoid receptor 2 [4] it was 49.5%.
For `CCCCCCN1C(=O)/C(=N\NC(=S)Nc2ccccc2)c2ccccc21`, the Activity at Cannabinoid receptor 2 [1] was found to be 37.7%; in data set [2], 49%.
Turning to `CCCCCCN1C(=O)/C(=N\NC(=O)c2ccccc2)c2cccc(Cl)c21`, the values for the Activity (at Cannabinoid receptor 2 [5]; in data set [6]) were 29% and 60%, respectively. Further, the outcome in data set [7] and in data set [3] was inactive. This molecule returned an Emax on Cannabinoid receptor 2 [4] of 64.8%.
In the case of `CCCCCCN1C(=O)/C(=N\NC(=O)c2ccccc2)c2cccc(I)c21`, the Activity on Cannabinoid receptor 2 [5] was determined as 66%; in data set [6], 61%. Also, the result in data set [7] and in [3] was inactive. Moreover, the Emax on Cannabinoid receptor 2 [8] stood at 55%.
`CCCCCCN1C(=O)/C(=N\NC(=O)c2cc3ccccc3s2)c2ccccc21`: the Activity (on Cannabinoid receptor 2 [5]; in data set [6]) was less than 30% in each case.
For the molecule `CCCCCCN1C(=O)/C(=N\NC(=O)c2ccc3ccccc3c2)c2ccccc21`, the Activity (on Cannabinoid receptor 2 [5]; in data set [6]) was less than 30% in each case.
With `O=C(Cc1ccccc1)N/N=C1\C(=O)N(CCC2CCCCC2)c2ccccc21`, the values for the Activity (at Cannabinoid receptor 2 [1]; in [2]) were 47.2% and 88.8%, respectively. For the same molecule, the Emax in data set [3] came out at 75%; on Cannabinoid receptor 2 [4], 21%.
As for `CCCCCCN1C(=O)/C(=N\NC(=O)Nc2ccccc2)c2ccccc21`, the Activity (on Cannabinoid receptor 2 [1]; in data set [2]) was less than 40% in each case.
With `CCCCCCN1C(=O)/C(=N\NC(=O)C23CC4CC(CC(C4)C2)C3)c2ccccc21`, the figures for the Activity (on Cannabinoid receptor 2 [5]; in [6]) were 90.7% and 82.6%, respectively. For the same molecule, the Emax at Cannabinoid receptor 2 [8] is 32.1%; in data set [9], 34.6%.
Consider `O=C(N/N=C1\C(=O)N(Cc2ccccc2)c2ccccc21)c1ccccc1`, for which the Activity on Cannabinoid receptor 2 [5] came to 55%; in data set [6] it was 87%. Moreover, the Emax in data set [9] is 57%; in data set [3] it was 57%; at Cannabinoid receptor 2 [4] it was 92.7%. The Ki – broadly, the dissociation constant of the complex between target and ligand, obtained from inhibition or displacement – at Cannabinoid receptor 2 [10] worked out at 18.5 nM. In addition, on Cannabinoid receptor 2 [11], the EC50 (commonly the concentration that produces a half-maximal response) came to 63.7 nM.
For `O=C(N/N=C1\C(=O)N(CC2CCCCC2)c2ccccc21)c1ccccc1`, the figures for the Activity (at Cannabinoid receptor 2 [5]; in [6]) were 100% and 99%, respectively. The results for the Emax (in [3]; at Cannabinoid receptor 2 [4]) were 99% and 65.7%, respectively.
In the case of `CCCCCN1C(=O)/C(=N\NC(=O)c2ccccc2)c2cc(I)ccc21`, the results for the Activity (on Cannabinoid receptor 2 [5]; in data set [6]) were 10% and 25%, respectively.
For `CCCCCCN1C(=O)/C(=N\NC(=O)c2ccccc2)c2cc(C)ccc21` the same measures were 1% and 22%.
The matching figures for `O=C(N/N=C1\C(=O)N(c2ccccc2)c2ccccc21)c1ccccc1`: 8% and 18%.
`CCCCCCN1C(=O)/C(=N\NC(=O)c2ccccc2)c2cc(Cl)ccc21`: the Activity at Cannabinoid receptor 2 [5] was 6%; in [6], 9%.
In the case of `CCCCCCN1C(=O)/C(=N\NC(=O)c2ccccc2)c2cc(F)ccc21`, the Activity at Cannabinoid receptor 2 [5] was 46%; in data set [6] it was 57%. Also, the outcome in [7] and in data set [3] was inactive. The same molecule registered an Emax at Cannabinoid receptor 2 [4] of 33.8%.
With `O=C1/C(=N\NS(=O)(=O)c2ccccc2)c2ccccc2N1CCC1CCCCC1`, the Activity (on Cannabinoid receptor 2 [1]; in [2]) was less than 40% each time.
On to `CCCCCCN1C(=O)/C(=N\NC(=O)CCCCC)c2ccccc21`, for which the Activity was 36.6% on Cannabinoid receptor 2 [5] and 45.2% in [6].
Take `CCCCCCN1C(=O)/C(=N/NC(=O)OC(C)(C)C)c2ccccc21`: the Activity is 27% on Cannabinoid receptor 2 [5] and 75% in data set [6]. The outcome in [7] and in [9] was inactive. In addition, the Emax at Cannabinoid receptor 2 [8] turned out to be 23.4%.
For the molecule `O=C(N/N=C1\C(=O)N(CCN2C(=O)c3ccccc3C2=O)c2ccccc21)c1ccccc1`, the Activity (at Cannabinoid receptor 2 [5]; in data set [6]) was 3% throughout.
As for `CCCN1C(=O)/C(=N\NC(=O)c2ccccc2)c2ccccc21`, the Activity came to 32% at Cannabinoid receptor 2 [5] and 43% in data set [6]. Moreover, the outcome in data set [7] and in data set [3] was inactive. Further, at Cannabinoid receptor 2 [4], the Emax was found to be 61.4%.
For `CCCCCCN1C(=O)/C(=N\NC(=O)C2CCCCC2)c2ccccc21`, the Activity at Cannabinoid receptor 2 [5] was 61%; in data set [6], 65.8%. The Emax is 40.9% in data set [9] and 58% on Cannabinoid receptor 2 [4].
For the molecule `CCCCCCN1C(=O)/C(=N\NC(=O)c2cccc3ccccc23)c2ccccc21`, the results for the Activity (at Cannabinoid receptor 2 [5]; in data set [6]) were 69.8% and 83.9%, respectively. Further, the Emax is 12.9% in [9] and 30.5% at Cannabinoid receptor 2 [4].
On to `CCCCCCN1C(=O)/C(=N\NC(=O)c2ccccc2)c2cc(OC)ccc21`, for which the Activity was found to be 17% at Cannabinoid receptor 2 [5] and 26% in [6].
For the molecule `CCCCCCN1C(=O)/C(=N\NC(=O)OC(C)(C)C)c2ccccc21`, the Activity at Cannabinoid receptor 2 [5] came out at 82.3%; in data set [6] it was 85.1%. Also, the Emax in data set [3] is 92%; at Cannabinoid receptor 2 [4], 43.4%. This molecule also displayed a Ki on Cannabinoid receptor 2 [10] of 13.9 nM.
For the molecule `CCCCCCN1C(=O)/C(=N\NC(=O)c2ccccc2)c2ccccc21`, the outcome in the data set with Rattus norvegicus [12] and with Rattus norvegicus [15] was Active. Besides, the ED90 in the data set on Rattus norvegicus [13] worked out at 12 mg/kg. For the same molecule, the Activity at Cannabinoid receptor 2 [1] is 92.8%; in data set [2], 95.5%; with Rattus norvegicus [14], “Non-toxic”. For the same molecule, the Emax in data set [3] stood at 59.7%; on Cannabinoid receptor 2 [4] it was 68.8%. Also, at Cannabinoid receptor 2 [10], the Ki was 44.3 nM.
On to `CN1CCCCC1Cn1cc(C(=O)c2cc([N+](=O)[O-])ccc2I)c2ccccc21` (configuration not stated), for which the result in the data set with Rattus norvegicus [16] was inactive.
On to `O=C1/C(=N\NC(=S)Nc2ccccc2)c2ccccc2N1CCC1CCCCC1`, for which the Activity (on Cannabinoid receptor 2 [1]; in data set [2]) was less than 40% throughout.
For `CCCCN1C(=O)/C(=N\NC(=O)c2ccccc2)c2ccccc21`, the results for the Activity (on Cannabinoid receptor 2 [5]; in [6]) were 70% and 86%, respectively. Moreover, the figures for the Emax (in [9]; on Cannabinoid receptor 2 [4]) were 69% and 98.9%, respectively. This molecule came in with a Ki on Cannabinoid receptor 2 [10] of 19.3 nM.
With `O=C(N/N=C1\C(=O)N(CCC2CCCCC2)c2ccccc21)c1ccccc1`, the figures for the Activity (at Cannabinoid receptor 2 [1]; in data set [2]) were 79.8% and 96%, respectively. The Emax in data set [3] was 56.8%; on Cannabinoid receptor 2 [4] it was 55.6%. The same molecule came in with a Ki at Cannabinoid receptor 2 [10] of 58.8 nM.
